{"source": "patent US11236147B2", "about": "“Methods and compositions for the inhibition of TRPV4” (CHILDREN'S MEDICAL CENTER CORPORATION, priority 2013, dated 2022)", "key": {"[1]": {"molecular_target": "T1, TRPV4 (Homo sapiens, UniProt Q9HBA0)", "T1 construct": "Transient increases in intracellular calcium were detected quickly after force application in HUVE cells treated with control siRNA; endogenous in cells; host or cells: HUVE cells (ATCC) treated with control or CD98 siRNA", "T1 sequence (Q9HBA0 whole entry)": "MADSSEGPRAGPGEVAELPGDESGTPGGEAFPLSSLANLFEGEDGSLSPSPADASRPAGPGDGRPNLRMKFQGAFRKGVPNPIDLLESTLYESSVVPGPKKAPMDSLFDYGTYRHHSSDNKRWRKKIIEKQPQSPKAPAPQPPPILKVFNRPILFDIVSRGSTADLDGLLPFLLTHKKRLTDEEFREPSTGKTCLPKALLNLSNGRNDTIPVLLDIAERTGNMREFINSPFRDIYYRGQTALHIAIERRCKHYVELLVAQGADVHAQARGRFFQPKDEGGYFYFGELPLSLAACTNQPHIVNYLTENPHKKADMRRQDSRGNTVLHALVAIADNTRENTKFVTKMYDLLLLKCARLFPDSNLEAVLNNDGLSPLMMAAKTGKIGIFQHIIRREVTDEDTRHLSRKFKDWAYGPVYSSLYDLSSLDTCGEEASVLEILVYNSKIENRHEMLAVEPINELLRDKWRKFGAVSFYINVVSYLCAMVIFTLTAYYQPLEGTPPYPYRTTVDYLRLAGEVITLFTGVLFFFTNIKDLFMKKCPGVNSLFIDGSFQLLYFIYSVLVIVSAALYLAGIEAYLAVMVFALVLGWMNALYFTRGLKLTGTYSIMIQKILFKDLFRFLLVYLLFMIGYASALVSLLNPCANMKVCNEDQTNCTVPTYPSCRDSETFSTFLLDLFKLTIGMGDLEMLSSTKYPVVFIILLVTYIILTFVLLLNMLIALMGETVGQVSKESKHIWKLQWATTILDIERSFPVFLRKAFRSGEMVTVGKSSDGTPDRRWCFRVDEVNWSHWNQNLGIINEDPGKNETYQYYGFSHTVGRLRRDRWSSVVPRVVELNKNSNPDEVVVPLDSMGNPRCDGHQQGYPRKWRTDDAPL", "experiment": "Calcium imaging: calcium influx by chemical stimulation (4α-PDD)", "type": "cell-based", "experimental": "(§1) FIG. 6A depicts a graph of the relative change in cytosolic calcium in response to static stretch (20%, 4 second arrow) in Fluo-4-loaded CE cells treated with control or CD98 siRNA. FIG. 6B depicts a graph of the average relative increases in cytosolic calcium induced by mechanical strain in HUVE cells treated with control or CD98 siRNA. FIG. 6C depicts a graph of the relative change in cytosolic calcium in response to 4α-PDD (10 μM) in Fluo-4-loaded CE cells treated with control or CD98 siRNA. FIG. 6D depicts a graph of the average relative increases in cytosolic calcium induced by chemical strain in HUVE cells treated with control or CD98 siRNA.\n(§2) Specific inhibition of mechanical activation of TRPV4 activity. Moreover, TRPV4 is specifically activated by mechanical strain (12). To examine whether CD98 transducse the signal by mechanical stimulation through TRPV4, the calcium influx by mechanical stimulation was investigated. Transient increases in intracellular calcium were detected quickly after force application in HUVE cells treated with control siRNA. […] TRPV4 is also activated by chemical stimulation such as 4α-phorbol 12, 13-didecanoate (4α-PDD).\n(§3) Mechanical strain application, measurement of cell orientation, Calcium Imaging were performed as described (Thodeti et al., 2009)"}, "[2]": {"molecular_target": "T2, TRPV4 (Rattus norvegicus, UniProt Q9ERZ8)", "T2 construct": "host or cells: rats, in vivo", "T2 sequence (Q9ERZ8 whole entry)": "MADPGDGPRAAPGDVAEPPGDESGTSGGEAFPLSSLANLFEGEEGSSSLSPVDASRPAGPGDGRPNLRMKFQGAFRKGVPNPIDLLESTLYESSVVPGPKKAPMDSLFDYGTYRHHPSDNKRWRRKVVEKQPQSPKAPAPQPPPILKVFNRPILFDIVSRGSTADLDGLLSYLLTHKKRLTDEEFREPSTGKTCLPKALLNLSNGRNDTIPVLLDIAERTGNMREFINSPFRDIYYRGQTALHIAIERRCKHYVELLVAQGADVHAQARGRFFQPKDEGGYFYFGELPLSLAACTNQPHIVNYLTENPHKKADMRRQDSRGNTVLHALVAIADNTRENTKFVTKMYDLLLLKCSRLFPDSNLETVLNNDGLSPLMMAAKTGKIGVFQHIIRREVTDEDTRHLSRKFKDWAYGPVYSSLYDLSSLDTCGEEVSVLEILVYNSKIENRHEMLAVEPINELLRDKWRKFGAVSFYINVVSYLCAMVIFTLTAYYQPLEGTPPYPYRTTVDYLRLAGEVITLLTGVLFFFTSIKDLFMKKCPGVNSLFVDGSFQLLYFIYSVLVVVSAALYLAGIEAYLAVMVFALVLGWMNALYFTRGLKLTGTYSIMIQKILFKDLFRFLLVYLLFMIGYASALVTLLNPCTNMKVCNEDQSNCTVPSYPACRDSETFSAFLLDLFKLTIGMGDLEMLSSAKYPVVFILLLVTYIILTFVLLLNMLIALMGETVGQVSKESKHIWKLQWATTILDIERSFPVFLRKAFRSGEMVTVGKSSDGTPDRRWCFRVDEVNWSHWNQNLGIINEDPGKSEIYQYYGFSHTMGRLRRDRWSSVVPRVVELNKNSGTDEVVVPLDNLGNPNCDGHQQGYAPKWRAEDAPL", "details": "rats; cited from earlier work"}, "[3]": {"molecular_target": "T3, TRPV4 (Mus musculus, UniProt Q9EPK8)", "T3 construct": "host or cells: mice, in vivo", "T3 sequence (Q9EPK8 whole entry)": "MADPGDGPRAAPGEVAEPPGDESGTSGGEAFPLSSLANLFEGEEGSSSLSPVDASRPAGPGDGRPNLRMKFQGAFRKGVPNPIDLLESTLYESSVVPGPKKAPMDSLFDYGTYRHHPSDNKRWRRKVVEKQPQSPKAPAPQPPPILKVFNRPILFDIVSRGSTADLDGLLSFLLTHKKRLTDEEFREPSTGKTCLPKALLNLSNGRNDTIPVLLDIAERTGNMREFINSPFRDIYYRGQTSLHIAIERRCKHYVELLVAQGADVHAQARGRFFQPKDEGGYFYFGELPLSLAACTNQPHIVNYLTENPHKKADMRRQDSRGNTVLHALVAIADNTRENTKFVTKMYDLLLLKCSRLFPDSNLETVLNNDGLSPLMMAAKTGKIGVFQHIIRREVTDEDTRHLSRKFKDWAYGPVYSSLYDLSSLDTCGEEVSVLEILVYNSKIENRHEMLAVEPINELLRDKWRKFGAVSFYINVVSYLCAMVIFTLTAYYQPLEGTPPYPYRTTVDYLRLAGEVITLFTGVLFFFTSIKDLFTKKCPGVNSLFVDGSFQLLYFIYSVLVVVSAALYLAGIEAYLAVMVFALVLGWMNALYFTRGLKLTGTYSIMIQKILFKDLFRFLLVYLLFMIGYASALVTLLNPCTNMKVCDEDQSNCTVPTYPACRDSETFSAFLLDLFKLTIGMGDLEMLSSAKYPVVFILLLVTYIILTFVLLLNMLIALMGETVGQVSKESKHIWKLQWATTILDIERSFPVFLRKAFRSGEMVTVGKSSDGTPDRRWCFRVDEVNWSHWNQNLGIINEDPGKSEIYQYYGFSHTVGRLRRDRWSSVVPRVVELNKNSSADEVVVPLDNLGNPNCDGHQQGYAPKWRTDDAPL", "details": "mice; cited from earlier work"}, "[4]": {"molecular_target": "T4, TRPV4 (Canis lupus familiaris, UniProt A0A8I3PAV3)", "T4 construct": "host or cells: dog, in vivo", "T4 sequence (A0A8I3PAV3 1-828)": "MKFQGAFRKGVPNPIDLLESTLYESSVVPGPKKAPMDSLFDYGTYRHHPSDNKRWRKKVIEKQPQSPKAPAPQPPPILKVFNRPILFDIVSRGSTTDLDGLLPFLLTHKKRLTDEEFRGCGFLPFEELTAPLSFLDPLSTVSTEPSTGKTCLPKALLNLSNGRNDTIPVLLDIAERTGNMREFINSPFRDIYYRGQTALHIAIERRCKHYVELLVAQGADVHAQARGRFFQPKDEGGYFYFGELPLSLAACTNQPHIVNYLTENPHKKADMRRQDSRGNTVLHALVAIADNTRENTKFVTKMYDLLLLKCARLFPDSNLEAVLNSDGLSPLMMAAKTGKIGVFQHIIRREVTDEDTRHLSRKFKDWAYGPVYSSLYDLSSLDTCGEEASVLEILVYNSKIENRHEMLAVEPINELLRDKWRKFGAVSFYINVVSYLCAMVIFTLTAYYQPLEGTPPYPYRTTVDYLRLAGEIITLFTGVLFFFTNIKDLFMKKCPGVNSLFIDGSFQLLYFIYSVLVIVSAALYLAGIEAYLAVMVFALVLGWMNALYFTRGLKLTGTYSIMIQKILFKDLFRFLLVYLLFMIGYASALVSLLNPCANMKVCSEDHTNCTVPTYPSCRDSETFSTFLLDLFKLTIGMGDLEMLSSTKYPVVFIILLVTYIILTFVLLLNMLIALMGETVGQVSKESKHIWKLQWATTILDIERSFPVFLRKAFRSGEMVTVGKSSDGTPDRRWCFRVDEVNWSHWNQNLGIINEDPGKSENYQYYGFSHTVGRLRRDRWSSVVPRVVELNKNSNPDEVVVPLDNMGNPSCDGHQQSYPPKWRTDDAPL", "details": "dog; cited from earlier work"}, "[5]": {"molecular_target": "T1, TRPV4", "details": "human lung-on-a-chip microdevice, IL2-induced; cited from earlier work"}, "[6]": {"tested_on": "HUVE cells", "experiment": "Actin rearrangement / cell orientation after 20% uniaxial cyclic strain", "type": "cell-based, human", "experimental": "(§4) CD98 involves actin rearrangement on mechanotransduction. To confirm that CD98 translates the mechanical signal from β1-integrin to TRPV4 by mediating the binding, it was examined whether CD98 is required for the actin arrangement induced by cyclic strain. To analyze it, HUVE cells were cultured on flexible fibronectin-coated substrates and subjected to 20% uniaxial cyclic strain using a FlexrCell™ Tension Plus system. […] In contrast, this response was abolished by the treatment with CD98 siRNA (FIG. 5).\nas §3\nas §4, with “To” for “CD98 involves actin rearrangement on mechanotransduction. To”, “FlexrCell” for “FlexrCell™”, “Plus™” for “Plus”"}, "[7]": {"molecular_target": "T5, binding between β1-integrin and TRPV4 (Homo sapiens, UniProt P05556+Q9HBA0)", "T5 construct": "endogenous in cells; host or cells: HEK293T cells (ATCC); only the HA-CD98 high homology domain is transfected", "T5 sequence (Q9HBA0 whole entry, the tested form may be a part)": "as the sequence (Q9HBA0 whole entry) above", "T5 sequence (P05556 21-798)": "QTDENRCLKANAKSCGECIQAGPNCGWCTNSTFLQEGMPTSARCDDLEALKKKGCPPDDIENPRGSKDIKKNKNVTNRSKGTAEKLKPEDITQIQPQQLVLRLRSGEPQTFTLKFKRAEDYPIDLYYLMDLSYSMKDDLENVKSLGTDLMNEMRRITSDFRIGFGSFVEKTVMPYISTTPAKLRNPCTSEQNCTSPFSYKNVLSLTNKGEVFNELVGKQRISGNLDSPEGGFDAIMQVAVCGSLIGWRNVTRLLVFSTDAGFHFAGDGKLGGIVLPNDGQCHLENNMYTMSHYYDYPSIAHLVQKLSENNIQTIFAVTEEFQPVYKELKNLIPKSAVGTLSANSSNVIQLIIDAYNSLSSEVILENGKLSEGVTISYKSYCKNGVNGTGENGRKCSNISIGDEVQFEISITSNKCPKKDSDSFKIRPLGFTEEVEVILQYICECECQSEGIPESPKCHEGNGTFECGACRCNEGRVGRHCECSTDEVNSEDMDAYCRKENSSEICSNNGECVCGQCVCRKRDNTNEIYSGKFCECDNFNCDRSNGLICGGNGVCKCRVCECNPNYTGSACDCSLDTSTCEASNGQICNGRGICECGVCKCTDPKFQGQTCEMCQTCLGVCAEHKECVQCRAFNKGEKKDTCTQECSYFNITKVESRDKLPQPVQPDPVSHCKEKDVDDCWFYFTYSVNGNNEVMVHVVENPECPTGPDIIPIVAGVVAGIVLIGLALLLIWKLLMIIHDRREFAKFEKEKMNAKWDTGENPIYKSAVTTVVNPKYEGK", "experiment": "Immunoprecipitation binding assay in HEK293T cells transfected with HA-linked CD98 high homology domain", "type": "cell-based", "details": "HEK293T cells, 2.5, 5 μg HA-linked CD98 high homology domain vs HA vector, 24 h", "experimental": "2.5, 5 μg HA-linked CD98 high homology domain or 5 μg HA vector was transfected into HEK293T cells, and the binding assay was performed 24 h later. The bottom panel gives the amount of each transgene in total cell lysates of respective transfectants. In the top or the 3rd panel, the lysates were immunoprecipitated with an anti-β1-integrin or TRPV4 antibody, and the amount of TRPV4 or β1-integrin in the precipitates was blotted with each antibodies. The 2nd or the 4th panel gives the amount of β1-integrin or TRPV4 in total cell lysates.\nImmunoprecipitation. Cells were extracted in ice-cold TRITON™ buffer (50 mM Tris-HCL, pH 7.4, containing 150 mM NaCl, 1% TRITONX100™, 5 mM EDTA). Cell extracts were centrifuged at 10000 g for 15 min at 4° C. prior to being immunoprecipitated with each antibodies and DYNABEADS™ Magnetic Beads (Invitrogen) at 4° C. Subsequently the beads were isolated by magnet and washed five times with TRITON™ buffer and then were detected by SDS-PAGE and immunoblotting.\nAs described above, high homology domain of CD98 is important for the binging to either β1-integrin or TRPV4. […] Therefore, CD98 mediates the binding between β1-integrin and TRPV4 at focal adhesion through high homology domain of CD98."}, "[8]": {"tested_on": "HUVE cells", "experiment": "Localization of TRPV4, CD98, integrin and vinculin at focal adhesions (TIRF / immunofluorescence)", "type": "cell-based, human", "details": "CD98 siRNA", "from_the_text": "TRPV4 associates with CD98 and β1-integrin at focal adhesion. The terminal 6 amino acid residues at the carboxy end of the β1-integrin cytoplasmic mediate calcium signaling and are required for rapid force induced TRPV4-mediated calcium signaling (10). It was postulated that CD98, which binds to the last 6 carboxy terminal amino acids of β1-integrin, is involved in the TRPV4 activation by β1-integrin using genetically engineered mutant integrin constructs. First, it was confirmed that CD98 binds to integrins through the region of the β1-integrin tail using β1-integrin mutant constructs to transfect HEK293T cells followed by an immunoprecipitation assay. It was also confirmed that TRPV4 also interacts with the same region of β1-integrin using the same β1-integrin mutant constructs (data not shown). To explore the binding between those molecules, whether CD98 and β1-integrin can be co-precipitated from HUVE cell lysates using anti-TRPV4 antibody was determined (FIG. 1A). TRPV4 similarly precipitates with either anti-β1-integrin or anti-CD98 antibody (FIG. 1B). Moreover, it was confirmed that TRPV4 overlapped with CD98 at vinculin positive focal adhesions by Total Internal Reflection Fluorescence (TIRF, data not shown).\nsiRNA knock down of CD98. RNA interference assay was conducted with human CD98 siRNA duplexes: 5′-[…]-3′ (SEQ ID NO: 21) and 5′-[…]-3′ (SEQ ID NO: 22). […]"}, "[9]": {"tested_on": "TRPV4", "experiment": "Calcium imaging: calcium influx by mechanical stimulation", "type": "cell-based, human", "details": "HUVE cells, CD98 siRNA vs control siRNA, Fluo-4, static stretch 20%", "experimental": "as §1, §2, §3"}, "[10]": {"tested_on": "HUVE cells", "experiment": "Scratch wound cell migration assay", "type": "cell-based, human", "details": "monolayer HUVE cells, CD98 siRNA vs control siRNA", "from_the_text": "(§5) CD98 mediates the binding between TRPV4 and β1-integrin at focal adhesion. The question is what the molecular mechanism is by which CD98 mediates the signaling from β1-integrin to TRPV4. CD98 is important for surface expression and clustering of β1-integrin in MCF7 cells (11). Therefore, it was examined whether CD98 mediates the binding between β1-integrin and TRPV4 using siRNA-based knockdown of CD98. […] Thus, CD98 deficiency doesn't affect the formation of focal adhesion.\nIt was next asked whether CD98 serves to link β1-integrin to TRPV4. […] Thus, CD98 is not required for focal adhesion formation or function. […] Although TRPV4 expression was not decreased, TRPV4 couldn't localize at focal adhesions (data not shown)."}, "[11]": {"tested_on": "binding between β1-integrin and TRPV4", "experiment": "Immunoprecipitation of TRPV4 / β1-integrin binding in HUVE cells after CD98 siRNA knock down", "type": "cell-based, human", "details": "CD98 siRNA vs control siRNA, co-immunoprecipitation", "from_the_text": "(§6) The cells were transfected with control or CD98 siRNA. The amount of each component in the total cell lysates is given in the left panel. In the right lanses the cell lysates were immunoprecipitates with rabbit anti-TRPV4 (upper) or mouse anti-β1-integrin antibody (lower).\nas §5\n(§7) siRNA knock down of CD98. RNA interference assay was conducted with human CD98 siRNA duplexes: 5′-[…]-3′ (SEQ ID NO: 21) and 5′-[…]-3′ (SEQ ID NO: 22). Cells were transfected with 50 nM of the siRNA duplexes in Opti-MEM™ (Invitrogen) using silentFect Lipid Reagent for RNAi (BIO-RAD), according to the manufacturer's instructions.\nImmunoprecipitation. Cells were extracted in ice-cold TRITON™ buffer (50 mM Tris-HCL, pH 7.4, containing 150 mM NaCl, 1% TRITONX100™, 5 mM EDTA). […] Subsequently the beads were isolated by magnet and washed five times with TRITON™ buffer and then were detected by SDS-PAGE and immunoblotting."}, "[12]": {"tested_on": "TRPV4", "experiment": "TRPV4 expression in total cell lysates after CD98 knock down", "type": "cell-based, human", "details": "HUVE cells, CD98 siRNA", "experimental": "as §6, §7"}}, "note": "“Also recorded” adds a separate entry of the source."}
{"molecule": "CCCCCCCCCC(=O)O[C@@H]1[C@@H](C)[C@@]2(O)[C@@H](C=C(CO)C[C@@]3(O)C(=O)C(C)=C[C@@H]23)[C@@H]2C(C)(C)[C@]12OC(=O)CCCCCCCCC", "note": "[4α-PDD, 4α-phorbol 12, 13-didecanoate]", "values": [{"measurement": "intracellular calcium in response to 4α-PDD", "setting": "[1]; HUVE cells treated with either control or CD98 siRNA, 4α-PDD 10 μM", "result": "rapid increase in intracellular calcium"}]}
{"molecule": "O=C(NC1(c2ccccc2)CC1)c1c(CN2CCC(N3CCCCC3)CC2)c(-c2cccc(C(F)(F)F)c2)nc2cc(Br)ccc12", "note": "[GSK2193874]", "values": [{"measurement": "cardiogenic pulmonary edema", "setting": "[2]", "result": "prevents cardiogenic pulmonary edema"}, {"measurement": "cardiogenic pulmonary edema", "setting": "[3]", "result": "prevents cardiogenic pulmonary edema"}, {"measurement": "cardiogenic pulmonary edema", "setting": "[4]", "result": "prevents cardiogenic pulmonary edema"}, {"measurement": "pulmonary vascular leakage and lung edema development", "setting": "[5]", "result": "prevent pulmonary vascular leakage and lung edema development"}]}
{"molecule": "high homology domain of CD98: domain of CD98 having the sequence of SEQ ID NO: 1; N-terminal region highly conserved from Drosophila to mammals (KFTGLSKEELLKVAGSPGWVRTRWALLLLFWLGWLGMLAGAVVIIVRAPRC)", "values": [{"measurement": "actin rearrangements after mechanical strain", "setting": "[6]; HUVE cells overexpressing high homology domain of CD98 vs vector", "result": "didn't show actin rearrangements"}, {"measurement": "β1-integrin binding to TRPV4", "setting": "[7]", "result": "decreased"}, {"measurement": "β1-integrin binding to TRPV4", "setting": "[7]; listed as high homology domain", "result": "inhibited"}]}
{"molecule": "CD98 siRNA: human CD98 siRNA duplexes: 5′-GAAUGGUCUGGUGAAGAUC-3′ (SEQ ID NO: 21) and 5′-GAUCUUCACCAGACCAUUC-3′ (SEQ ID NO: 22) (listed as RNA, chemistry not given here; listed as Homo sapiens)", "values": [{"measurement": "TRPV4 localization at focal adhesions", "setting": "[8]", "result": "can't localize at focal adhesion; also recorded: loss of TRPV4 from focal adhesions; also recorded: prevented; also recorded: greatly reduced the amount of both CD98 and TRPV4 within focal adhesions"}, {"measurement": "recruitment of integrins or vinculin to focal adhesions", "setting": "[8]", "result": "no effect"}, {"measurement": "stress fiber realignment (actin rearrangement) induced by cyclic strain", "setting": "[6]; HUVE cells, CD98 siRNA vs control siRNA, 20% uniaxial cyclic strain, 2 hours", "result": "inhibited; also recorded: abolished"}, {"measurement": "transient increase in intracellular calcium after force application (mechanical activation of TRPV4)", "setting": "[9]", "result": "inhibited; also recorded: didn't show this response; also recorded: inhibits calcium influx"}, {"measurement": "cell migration in scratch wound assay", "setting": "[10]", "result": "normally restored; also recorded: did not interfere with cell migration"}, {"measurement": "calcium influx of TRPV4 activation by chemical treatment", "setting": "[1]; HUVE cells, CD98 siRNA vs control siRNA", "result": "not inhibited; also recorded: not by chemical activators"}, {"measurement": "association (binding) of TRPV4 and β1-integrin", "setting": "[11]", "result": "can't bind to β1-integrin; also recorded: decreased association of TRPV4 and β1-integrin; also recorded: greatly reduced the amount of the binding between β1-integrin and TRPV4"}, {"measurement": "TRPV4 expression", "setting": "[12]", "result": "not decreased"}]}
